These results are taken from the supplement of paper PMC10307832.

SMILES strings stand for the structures.

For the first test, the system named is SK-LU-1. The test can be described thus: relative viability (nuclei count vs DMSO), 5 days (fraction); higher = more cells survive. To be noted: first compound 6.325 µM. An outline of the steps:
(§1)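 Dosing by pin tool came one day after lung cancer cell lines were seeded in 1536-well plates, using either one drug or a fixed anchor-drug dose plus five library-drug doses (not always all listed) in √10 steps. After 5 days, nuclei were counted on 4× images. Relative viability is treated-well nuclei count divided by vehicle-well nuclei count, and values are medians of duplicate plates.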
In the case of `COCC1(CO)C(=O)C2CCN1CC2` (stereo not drawn) [PRIMA-1MET] + COc1cccc2cc(-c3nc([C@H]4CC[C@H](C(=O)O)CC4)n4ncnc(N)c34)[nH]c12 [OSI-027] (partner 0.5 µM), the relative viability was 0.338.

`COCC1(CO)C(=O)C2CCN1CC2` (stereo not drawn) [PRIMA-1MET] + N=C(N)NC(=N)NCCc1ccccc1 [Phenformin] (partner 250 µM) returned a relative viability of 0.606.

Take `COCC1(CO)C(=O)C2CCN1CC2` (stereo not drawn) [PRIMA-1MET] + Nc1nc2[nH]cc(CCc3ccc(C(=O)N[C@@H](CCC(=O)O)C(=O)O)cc3)c2c(=O)[nH]1 [Pemetrexed] (partner 0.2 µM): the relative viability amounted to 0.955.

As for `COCC1(CO)C(=O)C2CCN1CC2` (stereo not drawn) [PRIMA-1MET] + Cc1nc(Nc2ncc(C(=O)Nc3c(C)cccc3Cl)s2)cc(N2CCN(CCO)CC2)n1 [Dasatinib] (partner 0.075 µM), the relative viability turned out to be 0.155.

The test is the same for the next values; noted with them: first compound 20 µM.
`COCC1(CO)C(=O)C2CCN1CC2` (stereo not drawn) [PRIMA-1MET] + CCNC(=O)c1noc(-c2cc(C(C)C)c(O)cc2O)c1-c1ccc(CN2CCOCC2)cc1 [Luminespib] (partner 0.01 µM) showed a relative viability of 0.137.

In turn, `COCC1(CO)C(=O)C2CCN1CC2` (stereo not drawn) [PRIMA-1MET] + COc1cccc2cc(-c3nc([C@H]4CC[C@H](C(=O)O)CC4)n4ncnc(N)c34)[nH]c12 [OSI-027] (partner 0.5 µM) yielded a relative viability of 0.0616.

The molecule `COCC1(CO)C(=O)C2CCN1CC2` (stereo not drawn) [PRIMA-1MET] + N=C(N)NC(=N)NCCc1ccccc1 [Phenformin] (partner 250 µM) had a relative viability of 0.0941.

As for `COCC1(CO)C(=O)C2CCN1CC2` (stereo not drawn) [PRIMA-1MET] + Nc1nc2[nH]cc(CCc3ccc(C(=O)N[C@@H](CCC(=O)O)C(=O)O)cc3)c2c(=O)[nH]1 [Pemetrexed] (partner 0.2 µM), the relative viability came to 0.652.

Consider `COCC1(CO)C(=O)C2CCN1CC2` (stereo not drawn) [PRIMA-1MET] + Cc1nc(Nc2ncc(C(=O)Nc3c(C)cccc3Cl)s2)cc(N2CCN(CCO)CC2)n1 [Dasatinib] (partner 0.075 µM), for which the relative viability was 0.0741.

The test system of another test is NCI-H1993. Described as above. As to conditions: first compound 0.2 µM. In a few lines: as §1
The molecule `COCC1(CO)C(=O)C2CCN1CC2` (stereo not drawn) [PRIMA-1MET] + CCNC(=O)c1noc(-c2cc(C(C)C)c(O)cc2O)c1-c1ccc(CN2CCOCC2)cc1 [Luminespib] (partner 0.01 µM) returned a relative viability of 1.04.

`COCC1(CO)C(=O)C2CCN1CC2` (stereo not drawn) [PRIMA-1MET] + COc1cccc2cc(-c3nc([C@H]4CC[C@H](C(=O)O)CC4)n4ncnc(N)c34)[nH]c12 [OSI-027] (partner 0.5 µM) displayed a relative viability of 0.569.

Take `COCC1(CO)C(=O)C2CCN1CC2` (stereo not drawn) [PRIMA-1MET] + N=C(N)NC(=N)NCCc1ccccc1 [Phenformin] (partner 250 µM): the relative viability was 0.503.

With `COCC1(CO)C(=O)C2CCN1CC2` (stereo not drawn) [PRIMA-1MET] + Nc1nc2[nH]cc(CCc3ccc(C(=O)N[C@@H](CCC(=O)O)C(=O)O)cc3)c2c(=O)[nH]1 [Pemetrexed] (partner 0.2 µM), the relative viability is 0.592.

The molecule `COCC1(CO)C(=O)C2CCN1CC2` (stereo not drawn) [PRIMA-1MET] + Cc1nc(Nc2ncc(C(=O)Nc3c(C)cccc3Cl)s2)cc(N2CCN(CCO)CC2)n1 [Dasatinib] (partner 0.075 µM) registered a relative viability of 0.596.

Staying with this test, now noted: first compound 0.6325 µM.
The molecule `COCC1(CO)C(=O)C2CCN1CC2` (stereo not drawn) [PRIMA-1MET] + CCNC(=O)c1noc(-c2cc(C(C)C)c(O)cc2O)c1-c1ccc(CN2CCOCC2)cc1 [Luminespib] (partner 0.01 µM) registered a relative viability of 0.829.

`COCC1(CO)C(=O)C2CCN1CC2` (stereo not drawn) [PRIMA-1MET] + COc1cccc2cc(-c3nc([C@H]4CC[C@H](C(=O)O)CC4)n4ncnc(N)c34)[nH]c12 [OSI-027] (partner 0.5 µM) gave a relative viability of 0.561.

In turn, `COCC1(CO)C(=O)C2CCN1CC2` (stereo not drawn) [PRIMA-1MET] + N=C(N)NC(=N)NCCc1ccccc1 [Phenformin] (partner 250 µM) showed a relative viability of 0.526.

Molecule `COCC1(CO)C(=O)C2CCN1CC2` (stereo not drawn) [PRIMA-1MET] + Cc1nc(Nc2ncc(C(=O)Nc3c(C)cccc3Cl)s2)cc(N2CCN(CCO)CC2)n1 [Dasatinib] (partner 0.075 µM) displayed a relative viability of 0.587.

The same test, now with this note: first compound 2 µM.
In the case of `COCC1(CO)C(=O)C2CCN1CC2` (stereo not drawn) [PRIMA-1MET] + CCNC(=O)c1noc(-c2cc(C(C)C)c(O)cc2O)c1-c1ccc(CN2CCOCC2)cc1 [Luminespib] (partner 0.01 µM), the relative viability was found to be 0.959.

`COCC1(CO)C(=O)C2CCN1CC2` (stereo not drawn) [PRIMA-1MET] + COc1cccc2cc(-c3nc([C@H]4CC[C@H](C(=O)O)CC4)n4ncnc(N)c34)[nH]c12 [OSI-027] (partner 0.5 µM) gave a relative viability of 0.518.

Consider `COCC1(CO)C(=O)C2CCN1CC2` (stereo not drawn) [PRIMA-1MET] + N=C(N)NC(=N)NCCc1ccccc1 [Phenformin] (partner 250 µM), for which the relative viability was determined as 0.496.

In turn, `COCC1(CO)C(=O)C2CCN1CC2` (stereo not drawn) [PRIMA-1MET] + Nc1nc2[nH]cc(CCc3ccc(C(=O)N[C@@H](CCC(=O)O)C(=O)O)cc3)c2c(=O)[nH]1 [Pemetrexed] (partner 0.2 µM) registered a relative viability of 0.592.

`COCC1(CO)C(=O)C2CCN1CC2` (stereo not drawn) [PRIMA-1MET] + Cc1nc(Nc2ncc(C(=O)Nc3c(C)cccc3Cl)s2)cc(N2CCN(CCO)CC2)n1 [Dasatinib] (partner 0.075 µM) yielded a relative viability of 0.574.

The same test, now with this note: first compound 6.325 µM.
As to `COCC1(CO)C(=O)C2CCN1CC2` (stereo not drawn) [PRIMA-1MET] + CCNC(=O)c1noc(-c2cc(C(C)C)c(O)cc2O)c1-c1ccc(CN2CCOCC2)cc1 [Luminespib] (partner 0.01 µM), the relative viability stood at 0.996.

Regarding `COCC1(CO)C(=O)C2CCN1CC2` (stereo not drawn) [PRIMA-1MET] + COc1cccc2cc(-c3nc([C@H]4CC[C@H](C(=O)O)CC4)n4ncnc(N)c34)[nH]c12 [OSI-027] (partner 0.5 µM), the relative viability worked out at 0.532.

With `COCC1(CO)C(=O)C2CCN1CC2` (stereo not drawn) [PRIMA-1MET] + N=C(N)NC(=N)NCCc1ccccc1 [Phenformin] (partner 250 µM), the relative viability was determined as 0.544.

Take `COCC1(CO)C(=O)C2CCN1CC2` (stereo not drawn) [PRIMA-1MET] + Nc1nc2[nH]cc(CCc3ccc(C(=O)N[C@@H](CCC(=O)O)C(=O)O)cc3)c2c(=O)[nH]1 [Pemetrexed] (partner 0.2 µM): the relative viability was 0.534.

`COCC1(CO)C(=O)C2CCN1CC2` (stereo not drawn) [PRIMA-1MET] + Cc1nc(Nc2ncc(C(=O)Nc3c(C)cccc3Cl)s2)cc(N2CCN(CCO)CC2)n1 [Dasatinib] (partner 0.075 µM): the relative viability stood at 0.554.

Still in this test, the particulars now being: first compound 20 µM.
Consider `COCC1(CO)C(=O)C2CCN1CC2` (stereo not drawn) [PRIMA-1MET] + CCNC(=O)c1noc(-c2cc(C(C)C)c(O)cc2O)c1-c1ccc(CN2CCOCC2)cc1 [Luminespib] (partner 0.01 µM), for which the relative viability stood at 0.758.

As for `COCC1(CO)C(=O)C2CCN1CC2` (stereo not drawn) [PRIMA-1MET] + COc1cccc2cc(-c3nc([C@H]4CC[C@H](C(=O)O)CC4)n4ncnc(N)c34)[nH]c12 [OSI-027] (partner 0.5 µM), the relative viability came to 0.49.

On to `COCC1(CO)C(=O)C2CCN1CC2` (stereo not drawn) [PRIMA-1MET] + N=C(N)NC(=N)NCCc1ccccc1 [Phenformin] (partner 250 µM), for which the relative viability was found to be 0.57.

`COCC1(CO)C(=O)C2CCN1CC2` (stereo not drawn) [PRIMA-1MET] + Nc1nc2[nH]cc(CCc3ccc(C(=O)N[C@@H](CCC(=O)O)C(=O)O)cc3)c2c(=O)[nH]1 [Pemetrexed] (partner 0.2 µM) gave a relative viability of 0.557.

`COCC1(CO)C(=O)C2CCN1CC2` (stereo not drawn) [PRIMA-1MET] + Cc1nc(Nc2ncc(C(=O)Nc3c(C)cccc3Cl)s2)cc(N2CCN(CCO)CC2)n1 [Dasatinib] (partner 0.075 µM) yielded a relative viability of 0.582.
